The results in this text go back to patent publication US4002623A, “Anti-inflammatory 1-[3-(dialkylamino)propyl]-2-acylaminobenzimidazoles and 2-acylamino-3-[3-(dialkylamino)-propyl]imidazo[4,5-b]pyridines” (Pfizer Inc., priority 1974, dated 1977).

A short description of one test: adjuvant arthritis screen (Walz et al.), swelling of the non-injected left hind foot on Day 16. It is filed as in vivo, male inbred Lewis rats. The settings on record: Rattus norvegicus, 384 h, 10 mg./kg. ip, daily day -1 through day 15, read-out: Activity Percent Inhibition. From the text:
The adjuvant arthritis test described by Walz et al., Ann. Rheum. Dis., 30, 303 (1971) was selected as the method of choice for the determination of the extent of which the novel compounds of the present invention are therapeutically effective as anti-inflammatory agents. Adjuvant arthritis is a crippling deformity in rats resulting from diffuse connective tissue involvement. It is considered by some authorities to be the best available experimental animal model of human rheumatoid arthritis because of its strong clinical and pathological similarities to the human disease and because it can be effectively treated with known anti-arthritic drugs. In this test, lesions resembling those of human rheumatoid arthritis are induced by the injection of complete Freund's adjuvant into one hind leg of a rat. A vigorous inflammatory response occurs in the injected hind leg and reaches its greatest size in about four days. This primary response is followed by the development of a second inflammatory response, appearing about 12-16 days post-injection, that occurs in the uninjected hind leg. While the compounds of the invention are capable of inhibiting the degree of inflammation in both legs, the inhibition of swelling in the uninjected leg at 16 days is considered to be the more meaningful measure of antiarthritic activity.
The adjuvant arthritis screen as described by Walz et al. (Ann. Rheum. Dis., 30: 303 (1971), was used to evaluate the above prepared compounds.
The screen is conducted using male inbred Lewis rats weighing approximately 250 gm. The animals are dosed with drug beginning on day- 1 and continuing daily through day 15. On Day 0, the subplanter surface of the right hind paw is injected with 0.1cc of a 1% suspension of Mycobacterium butyricum (Freunds adjuvant) in Primol (Esso). The swelling of the non-injected left hind foot on Day 16, resulting from immune response to adjuvant, was determined for dosed animals and controls. The foot volume is measured by immersing the paw to the anatomical hairline into a mercury reservoir which is connected to a Statham pressure transducer and a recording device. The results are expressed as % inhibition calculated according to the following equation: [formula] The results obtained are as follows for [drawing 22] where Z is --N(CH3)2 and X is carbon: […]
For `O=C(Nc1nc2ccccc2n1CCCN1CCNCC1)c1ccccc1` [Phenyl; H; H; drawing 28], the inhibition in vivo at 10 mg/kg is 19%.
Regarding `O=C(Nc1nc2ccccc2n1CCCN1CCN(Cc2ccccc2)CC1)c1cccc(C(F)(F)F)c1` [3-Trifluoromethylphenyl; H; H; drawing 27], the inhibition in vivo at 10 mg/kg amounted to 35%.
On the same count and under the same terms, the same measure for `O=C(Nc1nc2ccccc2n1CCCN1CCN(Cc2ccccc2)CC1)c1ccc(C(F)(F)F)cc1` [4-Trifluoromethylphenyl; H; H; drawing 27, 2-(4-trifluoromethylbenzamido)-1-[3-(4-benzyl-1-piperazinyl)-propyl]benzimidazole]: 47%.

The test is the same for the next values; noted with them: Rattus norvegicus, 384 h, 10 mg./kg. po, daily day -1 through day 15, read-out: Activity Percent Inhibition.
`CN1CCN(CCCn2c(NC(=O)c3ccc(Cl)cc3)nc3cc(Cl)ccc32)CC1` [4-Chlorophenyl; Cl; H; drawing 24]: the inhibition in vivo at 10 mg/kg is -10%.
Same read-out and setting: the same measure for `CN1CCN(CCCn2c(NC(=O)c3ccc(C(F)(F)F)cc3)nc3cc(C(F)(F)F)ccc32)CC1` [4-Trifluoromethylphenyl; CF3; H; drawing 24]: 28%; for `CN1CCN(CCCn2c(NC(=O)c3cccc(C(F)(F)F)c3)nc3cc(Cl)ccc32)CC1` [3-Trifluoromethylphenyl; Cl; H; drawing 24]: 16%.
Same read-out and setting: the same measure for `COc1ccc2c(c1)nc(NC(=O)c1cccc(C(F)(F)F)c1)n2CCCN1CCN(C)CC1` [3-Trifluoromethylphenyl; OCH3; H; drawing 24]: -5%.
For `CN1CCN(CCCn2c(NC(=O)c3cccc(Cl)c3)nc3cc(Cl)ccc32)CC1` [3-Chlorophenyl; Cl; H; drawing 24], the inhibition in vivo at 10 mg/kg is -5%.
For `CN1CCN(CCCn2c(NC(=O)c3cccc(C(F)(F)F)c3)nc3cc(C(F)(F)F)ccc32)CC1` [3-Trifluoromethylphenyl; CF3; H; drawing 24, 1-[3-(4-methyl-1-piperazinyl)propyl]-2-(3-trifluoromethylbenzamido)-5-trifluoromethylbenzimidazole], the inhibition in vivo at 10 mg/kg amounted to 46%.

Still in this test, the particulars now being: Rattus norvegicus, 384 h, 20 mg./kg. po, daily day -1 through day 15, read-out: Activity Percent Inhibition.
On to `Cc1ccc2c(c1)nc(NC(=O)c1cccc(C(F)(F)F)c1)n2CCCN1CCN(C)CC1` [3-Trifluoromethylphenyl; CH3; H; drawing 24], for which the inhibition in vivo at 20 mg/kg was 27%.
Still for that read-out and setting: the same measure for `CCCCCCCCCC(=O)Nc1nc2ccccc2n1CCCN1CCN(C)CC1` [CH3 (CH2)8; H; H; drawing 24]: 45%.
Same read-out and setting: the same measure for `CN1CCN(CCCn2c(NC(=O)c3ccc(C(F)(F)F)cc3)nc3cc(S(=O)(=O)N(C)C)ccc32)CC1`: 34%; for `COc1cccc(C(=O)Nc2nc3cccnc3n2CCCN2CCN(C)CC2)c1` [3-Methoxyphenyl; H; H; drawing 25]: 25%.
On the same count and under the same terms, the same measure for `COc1cccc(C(=O)Nc2nc3ccc(C)cc3n2CCCN2CCN(C)CC2)c1` [3-Methoxyphenyl; H; CH3; drawing 24, 1-[3-(4-methyl-1-piperazinyl)propyl]-2-(3-methoxybenzamido)-6-methylbenzimidazole]: 44%.
As for `COc1cccc(C(=O)Nc2nc3cc(S(=O)(=O)N(C)C)ccc3n2CCCN2CCN(C)CC2)c1` [3-Methoxyphenyl; SO2 N(CH3)2; H; drawing 24], the inhibition in vivo at 20 mg/kg was 13%.
Still for that read-out and setting: the same measure for `COc1cccc(C(=O)Nc2nc3cc(C)ccc3n2CCCN2CCN(C)CC2)c1` [3-Methoxyphenyl; CH3; H; drawing 24, 1-[3-(4-methyl-1-piperazinyl)propyl]-2-(3-methoxybenzamido)-5-methylbenzimidazole]: 37%; for `COc1ccc(C(=O)Nc2nc3cccnc3n2CCCN2CCN(C)CC2)cc1` [4-Methoxyphenyl; H; H; drawing 25]: 5%; for `COc1ccc(C(=O)Nc2nc3ccc(C)cc3n2CCCN2CCN(C)CC2)cc1` [4-Methoxyphenyl; H; CH3; drawing 24]: 22%.
Still for that read-out and setting: the same measure for `Cc1ccc2c(c1)nc(NC(=O)C=Cc1ccc(Cl)cc1)n2CCCN1CCN(C)CC1` [4-Chlorostyryl; CH3; H; drawing 24, 1-[3-(4-methyl-1-piperazinyl)propyl]-2-(p-chlorocinnamido)-5-methylbenzimidazole]: 39%; for `CN1CCN(CCCn2c(NC(=O)c3cccc(Cl)c3)nc3cccnc32)CC1` [3-Chlorophenyl; H; H; drawing 25]: 26%.
Regarding `CN1CCN(CCCn2c(NC(=O)c3ccc(Cl)cc3)nc3cc(S(=O)(=O)N(C)C)ccc32)CC1` [4-Chlorophenyl; SO2 N(CH3)2; H; drawing 24], the inhibition in vivo at 20 mg/kg amounted to 18%.
The same measure, in the same setting: the same measure for `CN1CCN(CCCn2c(NC(=O)c3cccc(C(F)(F)F)c3)nc3cc(S(=O)(=O)N(C)C)ccc32)CC1`: 22%; for `CN1CCN(CCCn2c(NC(=O)c3cccc(C(F)(F)F)c3)nc3cccnc32)CC1` [3-Trifluoromethylphenyl; H; H; drawing 25, 2-(3-trifluoromethylbenzamido)-3-[3-(4-methyl-1-piperazino)propyl]imidazo[4,5-b]pyridine]: 39%.
Same read-out and setting: the same measure for `CN1CCN(CCCn2c(NC(=O)C=Cc3ccc(Cl)cc3)nc3cc(C(F)(F)F)ccc32)CC1` [4-Chlorostyryl; CF3; H; drawing 24]: 6%.
Still for that read-out and setting: the same measure for `Cc1cc2nc(NC(=O)c3cccc(C(F)(F)F)c3)n(CCCN3CCN(C)CC3)c2cc1C`: 22%.

The same test, now with this note: Rattus norvegicus, 384 h, 33 mg./kg. ip, daily day -1 through day 15, read-out: Activity Percent Inhibition.
Regarding `COc1ccc2c(c1)nc(NC(=O)c1ccc(C(F)(F)F)cc1)n2CCCN1CCN(C)CC1` [4-Trifluoromethylphenyl; OCH3; H; drawing 24], the inhibition in vivo at 33 mg/kg turned out to be 69%.
The same measure, in the same setting: the same measure for `O=C(Nc1nc2ccccc2n1CCCN1CCOCC1)c1cccc(C(F)(F)F)c1` [3-Trifluoromethylphenyl; H; H; drawing 23]: 0%; for `CN(C)CCCn1c(NC(=O)c2cccc(Cl)c2)nc2ccccc21` [3-Chlorophenyl; H; H; Z = N(CH3)2]: 33%.
Same read-out and setting: the same measure for `CN(C)CCCn1c(NC(=O)c2cccc(C(F)(F)F)c2)nc2ccccc21`: 21%; for `COCC(=O)Nc1nc2ccccc2n1CCCN1CCOCC1` [CH3 OCH2; H; H; drawing 23]: 21%; for `CN1CCN(CCCn2c(NC(=O)c3ccccc3)nc3cc(Cl)ccc32)CC1` [Phenyl; Cl; H; drawing 24]: 41%.
Turning to `COc1cccc(C(=O)Nc2nc3ccccc3n2CCCN2CCN(C)CC2)c1` [3-Methoxyphenyl; H; H; drawing 24], the inhibition in vivo at 33 mg/kg turned out to be 26%.
Still for that read-out and setting: in the case of `CN1CCN(CCCn2c(NC(=O)c3cccc(Cl)c3)nc3ccccc32)CC1` [3-Chlorophenyl; H; H; drawing 24] it was 46%; in that of `CN1CCN(CCCn2c(NC(=O)c3ccc(Cl)cc3)nc3cc(Cl)ccc32)CC1` [4-Chlorophenyl; Cl; H; drawing 24], 63%; in that of `O=C(Nc1nc2ccccc2n1CCCN1CCCCC1)c1cccc(C(F)(F)F)c1` [3-Trifluoromethylphenyl; H; H; drawing 26], 30%.
On the same count and under the same terms, in the case of `O=C(Nc1nc2ccccc2n1CCCN1CCOCC1)c1ccccc1F` [2-Fluorophenyl; H; H; drawing 23] it was 6%; in that of `CN1CCN(CCCn2c(NC(=O)c3ccc(C(F)(F)F)cc3)nc3cc(C(F)(F)F)ccc32)CC1` [4-Trifluoromethylphenyl; CF3; H; drawing 24], 71%.
Same read-out and setting: the same measure for `COc1cccc(C(=O)Nc2nc3ccccc3n2CCCN(C)C)c1` [3-Methoxyphenyl; H; H; Z = N(CH3)2]: 21%; for `O=C(Nc1nc2ccccc2n1CCCN1CCOCC1)c1ccccc1` [Phenyl; H; H; drawing 23]: 15%.
Take `CN1CCN(CCCn2c(NC(=O)c3cccc(C(F)(F)F)c3)nc3cc(Cl)ccc32)CC1` [3-Trifluoromethylphenyl; Cl; H; drawing 24]: the inhibition in vivo at 33 mg/kg came to 74%.
Same read-out and setting: in the case of `COc1ccc(C(=O)Nc2nc3cc(Cl)ccc3n2CCCN2CCN(C)CC2)cc1` [4-Methoxyphenyl; Cl; H; drawing 24] it was 46%; in that of `COc1ccc2c(c1)nc(NC(=O)c1ccccc1)n2CCCN1CCN(C)CC1` [Phenyl; OCH3; H; drawing 24], 27%; in that of `COc1ccc2c(c1)nc(NC(=O)c1cccc(C(F)(F)F)c1)n2CCCN1CCN(C)CC1` [3-Trifluoromethylphenyl; OCH3; H; drawing 24], 57%.
The same measure, in the same setting: the same measure for `CN1CCN(CCCn2c(NC(=O)c3cccc(Cl)c3)nc3cc(Cl)ccc32)CC1` [3-Chlorophenyl; Cl; H; drawing 24]: 66%; for `CN1CCN(CCCn2c(NC(=O)c3cccc(C(F)(F)F)c3)nc3cc(C(F)(F)F)ccc32)CC1` [3-Trifluoromethylphenyl; CF3; H; drawing 24, 1-[3-(4-methyl-1-piperazinyl)propyl]-2-(3-trifluoromethylbenzamido)-5-trifluoromethylbenzimidazole]: 83%; for `O=C(Nc1nc2ccccc2n1CCCN1CCCCC1)c1ccc(Cl)cc1` [4-Chlorophenyl; H; H; drawing 26]: 46%.
The same measure, in the same setting: in the case of `CN1CCN(CCCn2c(NC(=O)C34CC5CC(CC(C5)C3)C4)nc3ccccc32)CC1` [1-Adamantyl; H; H; drawing 24] it was 28%.
`COc1cccc(C(=O)Nc2nc3cc(OC)ccc3n2CCCN2CCN(C)CC2)c1` [3-Methoxyphenyl; OCH3; H; drawing 24]: the inhibition in vivo at 33 mg/kg was determined as 43%.
